Experimental data: PMC8708495, “Population Pharmacokinetics and Pharmacodynamic Target Attainment of Isavuconazole against Aspergillus fumigatus and Aspergillus flavus in Adult Patients with Invasive Fungal Diseases: Should Therapeutic Drug Monitoring for Isavuconazole Be Considered as Mandatory as for the Other Mold-Active …” (Pharmaceutics, 2021)
Like-named read-outs stand apart in the source and are kept apart here.

How the values were obtained:
[1] = set-up: method as in PMID 26598096; conditions: cited from earlier work
[2] = Therapeutic drug monitoring of isavuconazole Ctrough and Cpeak in hospitalized patients; format: in vivo, human
Protocol: Isavuconazole treatment was started with a loading dose of 200 mg every 8 h for two days, followed by a maintenance dose of 200 mg daily administered orally or intravenously, at the physician’s discretion. Patients underwent TDM of isavuconazole by assessing plasma Ctrough, which was determined approximately five minutes before the scheduled daily dose, and, whenever possible, also plasma Cpeak, which was determined 2 h after oral administration or 0.5 h after a 1 h intravenous infusion. TDM was assessed firstly after at least 72 h from starting therapy and subsequently reassessed at the discretion of the attending physician.
Blood samples for isavuconazole TDM were immediately delivered to the Institute of Clinical Pharmacology, where they were centrifuged to obtain serum. Isavuconazole serum concentrations were estimated by means of a validated liquid chromatography–tandem mass spectrometry analytic method. Precision and accuracy were assessed by replicate analysis of quality control samples against calibration standards. Intra- and interassay coefficients of variation were always <10%. The LOQ was 0.11 mg/L, and the assay was linear in the range of 0.1–10 mg/L.

[3] = Population pharmacokinetic modeling (NPAG, Pmetrics); format: in vivo, human; conditions: for clearance / Vd / bioavailability: human, serum, 200 mg daily; for clearance / Vd: other: orally or intravenously; for clearance: read-out: CL, total body clearance (converted); for bioavailability: po, read-out: Fos, oral bioavailability
Protocol: Population pharmacokinetics were conducted using the nonparametric adaptive grid approach (NPAG) and the algebraic model solver included in the Pmetrics package (Version 1.5.0, Laboratory of Applied Pharmacokinetics and Bioinformatics, Los Angeles, CA, USA) of R [22]. One- and two-compartment models with first-order absorption and first-order elimination from the central compartment were developed. Maximum a posteriori (MAP)-Bayesian estimates of isavuconazole clearance (CL) and volume of distribution (V) were determined in each patient.
Influence of covariates was assessed by including the biologically plausible clinical covariates into the basic model. Covariate analysis was conducted by means of the Pmetrics function “PMstep” and by linear regression between the median MAP-Bayesian estimates of isavuconazole pharmacokinetic parameters and each tested covariate.
Model comparison was performed by calculating the objective function value (OFV) and the Akaike information criterion (AIC) value. An improvement between the two competitive models was considered statistically significant when the decrease in the OFV was at least 3.84 points. For both the population predictions and the individual predictions, model fit was assessed by evaluating the coefficient of determination of the linear regression of the observed versus predicted concentration plot. Internal model validation was performed by means of a visual predictive check (VPC) with n = 1000 simulations. The normalized prediction distribution errors (NPDE) were also calculated. The VPC plot compares the observed concentrations with model-predicted concentration-time profiles. A model is reliable when ≥95% of the observed concentrations reside within the 95% CI of the model prediction. Assay laboratory error was estimated by means of the interday variability assay data. A first-order polynomial regression was used between drug concentrations and the standard deviation of the observations (C0 = 0.006, C1 = 0.189). Extra process noise was captured with a gamma (G) model (G = 2).

[4] = cited from earlier work
A. fumigatus [5] = system: A. fumigatus; set-up: method as in PMID 25753636; conditions: EUCAST MIC method; associated with a 90% survival rate against disseminated aspergillosis by wild-type and azole-resistant A. fumigatus; cited from earlier work
A. flavus = system: A. flavus; set-up: method as in earlier work; conditions: EUCAST; cited from earlier work
[6] = cited from earlier work; remark: listed apart in the source
[7] = Safety and liver enzyme monitoring during isavuconazole therapy; format: in vivo
Protocol: (§1) The following demographic and clinical data were retrieved from each patient’s medical record: age, gender, weight, height, type and site of infection and microbiological isolate. Patient comedications, along with serum albumin, total bilirubin, ALT, AST and γ-GT concentrations, were recorded at each TDM assessment. Drug-induced liver injury was defined as mild, moderate, severe or fatal according to the EASL Clinical Practice Guidelines for drug-induced liver injury. Drug cotreatments were accurately reviewed by a clinical pharmacologist with the intent of assessing the eventual influence on isavuconazole clearance by CYP3A4 inhibitors and/or inducers. CYP3A4 inhibitors and/or inducers were classified as strong, moderate and mild according to the FDA [19] and to the DrugBank database. Patient outcome at end of therapy was defined as successful (in case of clinical, radiological and/or mycological resolution or improvement of infection) or failed according to [21].

invasive fungal disease = assay: Clinical outcome at end of isavuconazole treatment; format: in vivo, human
Protocol: This was a monocentric, retrospective, observational study conducted among patients who were treated with isavuconazole because of IFD between September 2017 and November 2020 at the Azienda Sanitaria Universitaria Friuli Centrale of Udine, Italy.
as §1

[8] = Mixed-effect linear regression of clinical variables associated with isavuconazole Ctrough; format: in vivo, human
Protocol: Data were presented as median and interquartile range (IQR) for continuous variables or as count and percentage for categorical variables in the descriptive statistics. Univariate and multivariate linear mixed-effect models (with a random effect to account for correlation among repeated measurements within the same subject) were performed to identify clinical independent predictors of isavuconazole Ctrough. All variables that were associated with a p ≤ 0.20 at univariate analysis were subsequently included in the multivariate model. All statistical and graphical analyses were performed with R version 3.4.4 (R Foundation for Statistical Computing, Vienna, Austria). Data were considered statistically significant when p < 0.05.

A. fumigatus [9] = system: A. fumigatus; set-up: method as in earlier work; conditions: EUCAST; cited from earlier work
[10] = Mean, final population pharmacokinetic model
[11] = Median, final population pharmacokinetic model

For `C[C@@H](c1nc(-c2ccc(C#N)cc2)cs1)[C@](O)(Cn1cncn1)c1cc(F)ccc1F` [isavuconazole, Isavuconazole], the plasma protein binding [1] is listed as greater than 98%, the “proportion of measured Ctrough <1.0 mg/L” value ([2]; 2 of 175 Ctrough) is listed as 1.1% and the “proportion of measured Ctrough >5.13 mg/L” value ([2]; 50 of 175 Ctrough) is listed as 28.6%. For the same compound, the Cpeak ([2]; median of 24 Cpeak, patients n = 50, dose 200 mg) was 4.67 mg/L, the Ctrough ([2]; median of 175 Ctrough, patients n = 50, dose 200 mg) was 3680 ng/mL and the “Ka, first-order transfer rate constant of absorption” value [3, 10] was 22.64 h⁻¹. The “Vp, volume of distribution of the peripheral compartment” value [3, 10] was 735.24 L, the “CL, total body clearance” value [3, 11] was 1.33 L/h and the “Ka, first-order transfer rate constant of absorption” value [3, 11] was 22.64 h⁻¹. For the same compound, the “Vp, volume of distribution of the peripheral compartment” value [3, 11] was 385.93 L, the clearance [3, 10] was 25.3 mL/min and the Vd ([3]; Mean, final population pharmacokinetic model, read-out: V, volume of distribution of the central compartment) was 89.5 L. It also gave a clearance [3, 11] of 25.3 mL/min, a Vd ([3]; Median, final population pharmacokinetic model, read-out: V, volume of distribution of the central compartment) of 103 L and a Vd ([3]; population pharmacokinetic model, read-out: median volume of distribution) of 489 L. The bioavailability [3, 10] was 95%, the bioavailability [3, 11] was 100% and the “interindividual variability on CL” value ([3]; population pharmacokinetic model) was 64%. The “dose up to which the pharmacokinetics are linear” value [4] was “up to 600 mg daily”, the elimination half-life [4] was 80 to 130 h and the “plasma drug accumulation ratio between start and end of therapy” value ([4]; multiple-dose study, 32 healthy volunteers, IV and oral) was 3.8–5.2. For the same compound, the CL ([4]; observed in SOT patients) was 4.28 L/h, the “interindividual variability on CL” value ([4]; reported by previous analysis) was 43–63% and the CL ([4]; reported in clinical trials) was 2.2 to 2.5 L/h. For the same compound, the “AUC24 h/MIC pharmacodynamic threshold of efficacy” value (A. fumigatus [5]) was greater than 33.4, the clinical breakpoint (A. flavus) was 1 mg/L and the “cut-off value for toxicity (Ctrough)” value ([6]; ROC analysis, mild adverse events) was 5130 ng/mL. For the same compound, the “Median isavuconazole concentration on days when side effects occurred” value [6] was 6.65 mg/L, the “Median isavuconazole concentration when side effects were not present” value [6] was 4.09 mg/L and the “isavuconazole levels associated with hepatic veno-occlusive disease” value ([6]; in vivo) was greater than 10 mg/L. The “linear increase of concentration for each day of treatment” value ([6]; linear mixed model, 264 Ctrough samples from 19 patients) was 0.032 mg/L, the “signs and/or symptoms of isavuconazole toxicity during therapy” value ([7]; 50 patients) was “No patient experienced signs and/or symptoms of isavuconazole toxicity during therapy” and the “ALT in intercurrent mild hepatotoxicity” value ([7]; one patient, resolved spontaneously without isavuconazole withdrawal) was “up to 261 IU/L”. The “alanine-aminotransferase (ALT), median (min–max)” value ([7]; patients on isavuconazole) was 21.0 (3.0–261.0) UI/L, the “aspartate-aminotransferase (AST), median (min–max)” value ([7]; patients on isavuconazole) was 20.0 (5.0–249.0) UI/L and the “gamma-glutamyltransferase (γ-GT), median (min–max)” value ([7]; patients on isavuconazole) was 70.0 (12.0–642.0) IU/L. The “lack of significant improvement with isavuconazole treatment” value (invasive fungal disease; 3/47) was 6.4%, the “Dead for other reasons” value (invasive fungal disease; 3/47, progression of underlying oncohematological disease) was 6.4% and the Treatment failure (invasive fungal disease; clinical outcome at end of treatment, Table 1 (12/47)) was 25.5%. For the same compound, the Successful treatment (invasive fungal disease; clinical outcome at end of treatment, patients who completed treatment (n = 47)) was 68.1%, the failure (invasive fungal disease; clinical outcome, text (9/47)) was 19.2% and the “Unstandardized β-Coefficient (95% CI) for Ctrough” value ([8]; Multivariate Analysis, Cotreatment with CYP3A4 inhibitors) was 2.154 (3.248–1.060). The “Unstandardized β-Coefficient (95% CI) for Ctrough” value ([8]; Multivariate Analysis, Dose/kg daily (mg/kg)) was 0.402 (0.819−0.016), the “Unstandardized β-Coefficient (95% CI) for Ctrough” value ([8]; Multivariate Analysis, γ-GT (IU/L)) was −0.0004 (0.002−0.002) and the “Unstandardized β-Coefficient (95% CI) for Ctrough” value ([8]; Univariate Analysis, ALT (IU/L)) was −0.001 (0.007−0.009). For the same compound, the “Unstandardized β-Coefficient (95% CI) for Ctrough” value ([8]; Univariate Analysis, AST (IU/L)) was −0.008 (-0.002–0.004), the “Unstandardized β-Coefficient (95% CI) for Ctrough” value ([8]; Univariate Analysis, Albumin (g/L)) was 0.034 (0.087−0.019) and the “Unstandardized β-Coefficient (95% CI) for Ctrough” value ([8]; Univariate Analysis, Cotreatment with CYP3A4 inhibitors) was 2.39 (3.337–1.443). The “Unstandardized β-Coefficient (95% CI) for Ctrough” value ([8]; Univariate Analysis, Days from starting therapy (days)) was 0.001 (0.007−0.005), the “Unstandardized β-Coefficient (95% CI) for Ctrough” value ([8]; Univariate Analysis, Dose/kg daily (mg/kg)) was 0.815 (1.164–0.466) and the “Unstandardized β-Coefficient (95% CI) for Ctrough” value ([8]; Univariate Analysis, Gender (male vs. female)) was 0.099 (6.986−6.788). The “Unstandardized β-Coefficient (95% CI) for Ctrough” value ([8]; Univariate Analysis, Total bilirubin (mg/dL)) was −0.346 (0.034−0.726), the “Unstandardized β-Coefficient (95% CI) for Ctrough” value ([8]; Univariate Analysis, Weight (kg)) was −0.029 (0.006−0.064) and the “Unstandardized β-Coefficient (95% CI) for Ctrough” value ([8]; Univariate Analysis, γ-GT (IU/L)) was 0.003 (0.005–0.001). For the same compound, the “reduction in Ctrough” value ([8]; associated with patient age) was 3.7%, the “increase in isavuconazole Ctrough” value ([8]; cotreatment with mild/moderate CYP3A4 inhibitors) was “more than 2 fold” and the clinical breakpoint (A. fumigatus [9]) was 1 mg/L.
